How the values were obtained:
[1] = Solid-state stability study, accelerated storage 40° C./75% RH, 3 months; assay type: physicochemical; conditions: sealed container
Description: A study was carried out to examine the physical stability of the benzamide cocrystals of the invention with respect to solid form conversion or signs of decomposition over time under both ambient and accelerated conditions. 50 mg each of Cocrystal 1, Cocrystal 2, Cocrystal 4, and Cocrystal 5A were separately placed in a sealed container at 40° C. and 75% relative humidity and stored under these conditions for 3 months. After this time all samples remained unchanged in appearance with no signs of deliquescence and no signs of any colour change.

[2] = Solid-state stability study, ambient conditions, 12 months; assay type: physicochemical; conditions: clear glass vial
Description: A second stability study was carried out where 50 mg each of Cocrystal 1, Cocrystal 2, Cocrystal 3, Cocrystal 4, and Cocrystal 5A were separately placed in a clear glass vial which was then stored under ambient conditions for 12 months. After this time all the cocrystals remained as white solids with no signs of colour change.

[3] = Dry milling in ball mill, assessed by eye and by XRPD; assay type: physicochemical; conditions: dry milled, Retsch MM400 ball mill, 2×15 min at 30 Hz, stainless-steel jar
Excerpt: In order to prepare cocrystal samples of similar particle size for a dissolution study and to assess the impact of milling on the crystallinity of the cocrystals, Cocrystal 1, Cocrystal 2, Cocrystal 3, Cocrystal 4 and Cocrystal 5a were dry milled using a ball mill. WO 2012/007758 discloses that to achieve satisfactory dissolution of the benzamide compound particle size reduction was required. […] Thus, a solid form of the benzamide compound that could undergo particle size reduction with an efficient recovery rate without the need to use a co-milling excipient is beneficial. The milled cocrystals, Cocrystal 1, Cocrystal 2, Cocrystal 3, Cocrystal 4 and Cocrystal 5a, were therefore assessed by eye for any potential agglomeration issues or excessive sticking to the walls of the milling vessel that might indicate potential adhesion/cohesion issues such as those of the pure benzamide compound.
200 mg each of Cocrystal 1, Cocrystal 2, Cocrystal 3, Cocrystal 4 and Cocrystal 5a were separately placed in a 25 ml stainless-steel milling jar containing a 1 cm stainless steel ball bearing. Each benzamide cocrystal of the invention was dry milled in a Retsch MM400 ball mill for 2×15 min at 30 Hz. The product was assessed by eye and by XRPD.

[4] = pure benzamide compound, as disclosed in WO 2012/007758; cited from earlier work
[5] = Polymorphism study (preparation methods 1 and 2 in different solvents); assay type: physicochemical; conditions: methods 1 and 2 using 2-propanol, ethyl acetate, acetonitrile, methyl ethyl ketone and water
Description: (§1) As AZD1656 is known to exist in six different crystalline forms an investigation was carried out to examine whether Cocrystal 1 could also exist in multiple polymorphic forms. Preparation methods 1 and 2 described above were carried out using 2-propanol, ethyl acetate, acetonitrile, methyl ethyl ketone and water.
as §1, with “Cocrystal 2” for “Cocrystal 1”

Compound	Appearance [1]	XRPD analysis (form change) [1]	Appearance [2]	XRPD analysis (form change) [2]	Powder flow / agglomeration after milling (by eye) [3]	Recoverability from milling chamber / adhesion to walls (by eye) [3]	Signs of loss of crystallinity due to milling (XRPD) [3]	Adhesion on dry milling [4]	Polymorphic forms obtained [5]
COC[C@H](C)Oc1cc(Oc2cnc(C(=O)N3CCC3)cn2)cc(C(=O)Nc2cnc(C)cn2)c1.O.O=C(O)C(O)C(O)C(=O)O [Cocrystal 4, 1:1 benzamide L-tartaric acid hydrate]	No change	No change	No change	No change	free-flowing powder with no obvious signs of agglomeration	easily recoverable from the milling chamber with no excessive adhesion to the walls of the milling jar	None	–	–
COC[C@H](C)Oc1cc(Oc2cnc(C(=O)N3CCC3)cn2)cc(C(=O)Nc2cnc(C)cn2)c1.O=C(O)CC(=O)O [Cocrystal 3, 1:1 benzamide malonic acid]	–	–	No change	No change	free-flowing powder with no obvious signs of agglomeration	easily recoverable from the milling chamber with no excessive adhesion to the walls of the milling jar	None	–	–
COC[C@H](C)Oc1cc(Oc2cnc(C(=O)N3CCC3)cn2)cc(C(=O)Nc2cnc(C)cn2)c1 [benzamide compound, 3-{[5-(azetidine-1-ylcarbonyl)pyrazin-2-yl]oxy}-5-{[(1S)-1-methyl-2-(methyloxy)ethyl]oxy}-N-(5-methylpyrazin-2-yl)benzamide]	–	–	–	–	–	–	–	excessive adhesion to the stainless-steel walls of the milling vessel resulting in low recovery yields	–
COC[C@H](C)Oc1cc(Oc2cnc(C(=O)N3CCC3)cn2)cc(C(=O)Nc2cnc(C)cn2)c1.O=C(O)c1cc(O)ccc1O [Cocrystal 5A, 1:1 benzamide gentisic acid form 1]	No change	No change	No change	No change	free-flowing powder with no obvious signs of agglomeration	easily recoverable from the milling chamber with no excessive adhesion to the walls of the milling jar	None	–	–
COC[C@H](C)Oc1cc(Oc2cnc(C(=O)N3CCC3)cn2)cc(C(=O)Nc2cnc(C)cn2)c1.O=C(O)/C=C\C(=O)O [Cocrystal 2, 1:1 benzamide maleic acid]	No change	No change	No change	No change	free-flowing powder with no obvious signs of agglomeration	easily recoverable from the milling chamber with no excessive adhesion to the walls of the milling jar	None	–	single polymorphic form
COC[C@H](C)Oc1cc(Oc2cnc(C(=O)N3CCC3)cn2)cc(C(=O)Nc2cnc(C)cn2)c1.O=C(O)/C=C/C(=O)O [Cocrystal 1, 1:1 benzamide fumaric acid]	No change	No change	No change	No change	free-flowing powder with no obvious signs of agglomeration	easily recoverable from the milling chamber with no excessive adhesion to the walls of the milling jar	None	–	single polymorphic form

From patent US12378227B2, “Therapeutic cocrystals of 3-{[5-(azetidine-1-ylcarbonyl)pyrazin-2-yl]oxy}-5-{[(1S)-1-methyl-2-(methyloxy)ethyl]oxy)-N-(5-methylpyrazin-2-yl)benzamide” (CONDUIT UK MANAGEMENT LTD, priority 2021, dated 2025)
